Measurements reported in patent publication US7960556B2, “Thiadiazole derivatives for the treatment of neuro-degenerative diseases” (NV reMYND, priority 2006, dated 2011).

Tested on: α-synuclein cytotoxicity in M17-SYNwt cells
Test: α-synuclein cytotoxicity assay: LDH leakage from paraquat-treated M17-SYNwt neuroblastoma cells;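 further: paraquat at 32 mM co-added with compound, 40 h exposure, LDH activity released into the culture medium measured, references are DMSO-only cells and paraquat plus DMSO cells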
Settings: Homo sapiens, Neuroblastoma cell; for Emax: read-out: % Inhib.
From the text: An α-synuclein expression plasmid was constructed by sub-cloning the NcoI/XhoI fragment from 212T-SYN(WT) (Griffioen et al., Biochem Biophys Acta (2006) 1762(3):312-318) containing the cDNA of human wild type α-synuclein correspondingly into a standard mammalian expression vector pcDNA3.1 (Invitrogen) resulting into the plasmid pcDNA3.1-SYNwt. Plasmids pcDNA3.1 and pcDNA3.1-SYNwt were transfected to human neuroblastoma cells (ATCC No. CRL-2267) and independent clonal lines with the plasmids stably integrated into the genome were selected. […] Over-expression of α-synuclein in M17-SYNwt cell lines was confirmed by Western analysis.
Due to the high levels of α-synuclein M17-SYNwt cells are exquisitely sensitivity to paraquat, a well-known risk factor of synuclein-dependent neuronal degeneration. In degenerated or dead cells lactate dehydrogenase (LDH) is leaked out of the cells into the extracellular environment due to a loss of plasma-membrane integrity. This principle was used to determine cytotoxicity by quantifying the level of leaked LDH into the growth medium.
The detailed method for determining α-synuclein cytotoxicity was as follows: From appropriate precultures of M17 and M17-SYN cells were seeded at 50,000 cells/cm^2 in Optimem Reduced Serum without phenol red (available from InVitrogen, Cat. 31985-047) supplemented with 5% fetal calf serum, 1 mM sodium pyruvate, 1× non-essential amino acids, 500 μg/ml G418 0,5× antibiotic/antimycotic. After 3 hours of incubation at 37° C./5% CO2 paraquat was added to the cells (final concentration of 32 mM), together with the test compound and the cells were further incubated for 40 hours. Subsequently, LDH activity was determined using Promega Cytotox 96 Non-Radioactive cytotoxicity assay, (Cat. G1780) according the instructions of the supplier.
In these experiments, the control group consisted of M17-SYNwt cells treated with DMSO, the untreated paraquat group consisted of M17-SYNwt cells treated with paraquat and DMSO, and the treated paraquat group consisted of M17-SYNwt cells treated with paraquat and the test compound dissolved in DMSO.

SMILES | Emax [%] | EC50 [nM]
Fc1ccc(Cc2nsc(N3CCN(Cc4ccc5c(c4)OCO5)CC3)n2)cc1 [compound 114, 1-(1,3-benzodioxol-5-ylmethyl)-4-[3-(4-fluorobenzyl)-1,2,4-thiadiazol-5-yl]piperazine] | 86 | 
CCCCCCc1ccc(C(=O)N2CCN(c3nc(Cc4ccc(C)cc4)ns3)CC2)cc1 [compound 176, 1-(4-hexylbenzoyl)-4-[3-(4-methylbenzyl)-1,2,4-thiadiazol-5-yl]piperazine] | 77 | 
COc1ccc(S(=O)(=O)NCCN(C)c2nc(Cc3cccc(OC)c3)ns2)cc1 [compound 213, N′-[4-methoxyphenylsulfonyl]-N-[3-(3-methoxybenzyl)-1,2,4-thiadiazol-5-yl]-N-methylethane-1,2-diamine] | 94 | 361
O=C(c1ccccc1F)N1CCN(c2nc(Cc3ccc(Cl)cc3)ns2)CC1 [compound 159, 1-(2-fluorobenzoyl)-4-[3-(4-chlorobenzyl)-1,2,4-thiadiazol-5-yl]piperazine] | 48 | 2850
CC1CN(c2nc(Cc3ccc(Cl)cc3)ns2)CCN1C(=O)c1ccccc1F (stereo not shown) [compound 167, 1-(2-fluorobenzoyl)-4-[3-(4-chlorobenzyl)-1,2,4-thiadiazol-5-yl]-2-methylpiperazine] | 117 | 
Cc1ccc(Cc2nsc(N3CCN(C(=O)c4ccc(F)cc4)CC3)n2)cc1 [compound 160, 1-(4-fluorobenzoyl)-4-[3-(4-methylbenzyl)-1,2,4-thiadiazol-5-yl]piperazine] | 88 | 2870
CCc1ccc(C(=O)N2CCN(c3nc(Cc4cccc(OC)c4)ns3)CC2C)cc1 (stereo not shown) [compound 143, 1-(4-ethylbenzoyl)-4-[3-(3-methoxybenzyl)-1,2,4-thiadiazol-5-yl]-2-methylpiperazine] | 89 | 560
O=C(Nc1ccc(F)c(F)c1)N1CCN(c2nc(Cc3ccc(F)cc3)ns2)CC1 [compound 28, N-(3,4-difluorophenyl)-4-[3-(4-fluorobenzyl)-1,2,4-thiadiazol-5-yl]piperazine-1-carboxamide] | 64 | 
Cc1ccc(C(=O)N2CCN(c3nc(Cc4ccc(F)cc4)ns3)CC2)cc1 [compound 141, 1-(4-methylbenzoyl)-4-[3-(4-fluorobenzyl)-1,2,4-thiadiazol-5-yl]piperazine] | 75 | 490
Cc1ccc(Cc2nsc(N3CCN(S(=O)(=O)c4ccc(F)cc4)CC3)n2)cc1 [compound 57, 1-[4-fluorophenylsulfonyl]-4-[3-(4-methylbenzyl)-1,2,4-thiadiazol-5-yl]piperazine] | 88 | 10.4
O=C(NCCN1CCN(c2nc(Cc3ccc(F)cc3)ns2)CC1)c1ccc(Cl)cc1 [compound 97, 4-chloro-N-{2-[4-[3-(4-fluorobenzyl)-1,2,4-thiadiazol-5-yl]piperazin-1-yl]ethyl}benzamide] | 68 | 1290
CC1CN(c2nc(Cc3ccc(F)cc3)ns2)CCN1C(=O)c1ccc(-c2ccccc2)cc1 (stereo not shown) [compound 129, 1-(1,1′-biphenyl-4-ylcarbonyl)-4-[3-(4-fluorobenzyl)-1,2,4-thiadiazol-5-yl]-2-methylpiperazine] | 61 | 240
Cc1ccc(Cc2nsc(N3CCN(CCNC(=O)Cc4ccc(F)cc4)CC3)n2)cc1 [compound 109, 2-(4-fluorophenyl)-N-{2-[4-[3-(4-methylbenzyl)-1,2,4-thiadiazol-5-yl]piperazin-1-yl]ethyl}acetamide] | 93 | 3520
CCCCc1ccc(C(=O)NCCN2CCN(c3nc(Cc4ccc(F)cc4)ns3)CC2)cc1 [compound 95, 4-butyl-N-{2-[4-[3-(4-fluorobenzyl)-1,2,4-thiadiazol-5-yl]piperazin-1-yl]ethyl}benzamide] | 78 | 380
CC1CN(c2nc(Cc3ccc(F)cc3)ns2)CCN1C(=O)c1ccc([N+](=O)[O-])cc1 (stereo not shown) [compound 184, 1-(4-nitrobenzoyl)-4-[3-(4-fluorobenzyl)-1,2,4-thiadiazol-5-yl]-2-methylpiperazine] | 52 | 
COc1ccc(S(=O)(=O)N2CCN(c3nc(Cc4cccc(F)c4)ns3)CC2)cc1 [compound 193, 1-[4-methoxyphenylsulfonyl]-4-[3-(3-fluoro-benzyl)-1,2,4-thiadiazol-5-yl]piperazine] | 68 | 10.7
COc1ccc(S(=O)(=O)N(C)CCN(C)c2nc(Cc3cccc(OC)c3)ns2)cc1 [compound 215, N′-[4-methoxyphenylsulfonyl]-N-[3-(3-methoxybenzyl)-1,2,4-thiadiazol-5-yl]-N,N′-dimethylethane-1,2-diamine] | 105 | 301
CC1CN(c2nc(Cc3ccccc3)ns2)CCN1C(=O)c1ccc(F)cc1 (stereo not shown) [compound 154, 1-(4-fluorobenzoyl)-4-[3-benzyl-1,2,4-thiadiazol-5-yl]-2-methylpiperazine] | 75 | 1580
CCS(=O)(=O)N1CCN(c2nc(Cc3ccc(Cl)cc3)ns2)CC1 [compound 84, 1-(ethylsulfonyl)-4-[3-(4-chlorobenzyl)-1,2,4-thiadiazol-5-yl]piperazine] | 53 | 3480

SMILES | Emax [%] | EC50 [nM]
Cc1ccc(Cc2nsc(N3CCN(S(=O)(=O)c4cccc(C(F)(F)F)c4)CC3)n2)cc1 [compound 62, 1-[3-trifluoromethylphenylsulfonyl]-4-[3-(4-methylbenzyl)-1,2,4-thiadiazol-5-yl]piperazine] | 45 | 
Cc1ccc(Cc2nsc(N3CCN(S(=O)(=O)c4cccc(C(F)(F)F)c4)C(C)C3)n2)cc1 (stereo not shown) [compound 56, 1-[3-trifluoromethylphenylsulfonyl]-4-[3-(4-methylbenzyl)-1,2,4-thiadiazol-5-yl]-2-methylpiperazine] | 87 | 
CC1CN(c2nc(Cc3ccc(F)cc3)ns2)CCN1C(=O)c1ccc([N+](=O)[O-])cc1Cl (stereo not shown) [compound 177, 1-(2-chloro-4-nitrobenzoyl)-4-[3-(4-fluorobenzyl)-1,2,4-thiadiazol-5-yl]-2-methylpiperazine] | 77 | 
CC1CN(c2nc(Cc3ccc(F)cc3)ns2)CCN1C(=O)C(Cl)c1ccccc1 (stereo not shown) [compound 7, 1-[chloro(phenyl)acetyl]-4-[3-(4-fluorobenzyl)-1,2,4-thiadiazol-5-yl]-2-methylpiperazine] | 69 | 
O=C(c1ccc(Cl)cc1)N1CCCN(c2nc(Cc3ccc(F)cc3)ns2)CC1 [compound 189, 1-(4-chlorobenzoyl)-4-[3-(4-fluorobenzyl)-1,2,4-thiadiazol-5-yl]-1,4-diazepane] | 85 | 170
CC(=O)Nc1ccc(S(=O)(=O)N2CCN(c3nc(Cc4ccc(F)cc4)ns3)CC2C)cc1 (stereo not shown) [compound 55, 1-[4-acetamidophenylsulfonyl]-4-[3-(4-fluorobenzyl)-1,2,4-thiadiazol-5-yl]-2-methylpiperazine] | 114 | 78.1
COc1cccc(S(=O)(=O)N2CCN(c3nc(Cc4ccc(F)cc4)ns3)CC2)c1 [compound 44, 1-[3-methoxyphenylsulfonyl]-4-[3-(4-fluorobenzyl)-1,2,4-thiadiazol-5-yl]piperazine] | 99 | 128
CC(C)(C)c1ccc(S(=O)(=O)N2CCN(c3nc(Cc4ccc(Cl)cc4)ns3)CC2)cc1 [compound 69, 1-[4-tert-butylphenylsulfonyl]-4-[3-(4-chlorobenzyl)-1,2,4-thiadiazol-5-yl]piperazine] | 31 | 
CC(=O)Nc1ccc(S(=O)(=O)N2CCN(c3nc(Cc4ccc(C)cc4)ns3)CC2)cc1 [compound 49, 1-[4-acetamidophenylsulfonyl]-4-[3-(4-methylbenzyl)-1,2,4-thiadiazol-5-yl]piperazine] | 77 | 0.106
CCc1ccc(C(=O)N2CCN(c3nc(Cc4ccc(C)cc4)ns3)CC2)cc1 [compound 131, 1-(4-ethylbenzoyl)-4-[3-(4-methylbenzyl)-1,2,4-thiadiazol-5-yl]piperazine] | 91 | 250
O=C(/C=C/c1ccccc1)N1CCN(c2nc(Cc3ccc(Cl)cc3)ns2)CC1 [compound 88, [(2E)-3-phenylprop-2-enoyl]-4-[3-(4-chlorobenzyl)-1,2,4-thiadiazol-5-yl]piperazine] | 72 | 
Cc1ccc(Cc2nsc(N3CCN(S(=O)(=O)c4ccc(F)cc4)C(C)C3)n2)cc1 (stereo not shown) [compound 58, 1-[4-fluorophenylsulfonyl]-4-[3-(4-methylbenzyl)-1,2,4-thiadiazol-5-yl]-2-methylpiperazine] | 58 | 61
Fc1ccc(Cc2nsc(N3CCN(Cc4ccccc4)CC3)n2)cc1 [compound 113, 1-benzyl-4-[3-(4-fluorobenzyl)-1,2,4-thiadiazol-5-yl]piperazine] | 65 | 1540
O=C(c1ccc2c(c1)OCO2)N1CCCN(c2nc(Cc3ccc(F)cc3)ns2)CC1 [compound 191, 1-(1,3-benzodioxol-5-ylcarbonyl)-4-[3-(4-fluorobenzyl)-1,2,4-thiadiazol-5-yl]-1,4-diazepane] | 63 | 
CCc1ccc(C(=O)N2CCN(c3nc(Cc4ccc(F)cc4)ns3)CC2C)cc1 (stereo not shown) [compound 116, 1-(4-ethylbenzoyl)-4-[3-(4-fluorobenzyl)-1,2,4-thiadiazol-5-yl]-2-methylpiperazine] | 71 | 52.2
O=C(c1cc(Cl)cc(Cl)c1)N1CCN(c2nc(Cc3ccc(F)cc3)ns2)CC1 [compound 137, 1-(3,5-dichlorobenzoyl)-4-[3-(4-fluorobenzyl)-1,2,4-thiadiazol-5-yl]piperazine] | 68 | 350
CC1CN(c2nc(Cc3ccc(F)cc3)ns2)CCN1C(=O)c1cccc(F)c1 (stereo not shown) [compound 179, 1-(3-fluorobenzoyl)-4-[3-(4-fluorobenzyl)-1,2,4-thiadiazol-5-yl]-2-methylpiperazine] | 68 | 
Cc1ccc(Cc2nsc(N3CCN(C(=O)c4ccc5c(c4)OCO5)C(C)C3)n2)cc1 (stereo not shown) [compound 161, 1-(1,3-benzodioxol-5-ylcarbonyl)-4-[3-(4-methylbenzyl)-1,2,4-thiadiazol-5-yl]-2-methyl + B176piperazine] | 101 | 3360
